The values that follow come from publication PMC8274952 (European journal of medicinal chemistry, 2019).

In one data set the test system is Kunming male mice. Kind of data set: Acute toxicity in vivo. Conditions: n = 6.
Another data set has as its system γH2AX foci. Kind of data set: γH2AX foci immunofluorescence in HCT116 cells. The class given is cell-based, human. Conditions: 1 μM, 3 h.
The subject of data set [1] is human breast cancer MCF-7 xenograft. Briefly: In vivo antitumor efficiency, MCF-7 xenograft. The note with it: MCF-7 xenograft nude mice; 5, 10, 20 mg/kg ip daily.
Data set [2] has as its system human colon cancer HCT116 xenograft. Kind of data set: In vivo antitumor efficiency, HCT116 xenograft. The note with it: HCT116 xenograft nude mice; 5, 10, 20 mg/kg ip daily.
The target of data set [3] is T1, TOP1-DNA covalent cleavage complexes (TOP1cc) (Homo sapiens, UniProt P11387).
T1 sequence (P11387 2-765 limits assumed): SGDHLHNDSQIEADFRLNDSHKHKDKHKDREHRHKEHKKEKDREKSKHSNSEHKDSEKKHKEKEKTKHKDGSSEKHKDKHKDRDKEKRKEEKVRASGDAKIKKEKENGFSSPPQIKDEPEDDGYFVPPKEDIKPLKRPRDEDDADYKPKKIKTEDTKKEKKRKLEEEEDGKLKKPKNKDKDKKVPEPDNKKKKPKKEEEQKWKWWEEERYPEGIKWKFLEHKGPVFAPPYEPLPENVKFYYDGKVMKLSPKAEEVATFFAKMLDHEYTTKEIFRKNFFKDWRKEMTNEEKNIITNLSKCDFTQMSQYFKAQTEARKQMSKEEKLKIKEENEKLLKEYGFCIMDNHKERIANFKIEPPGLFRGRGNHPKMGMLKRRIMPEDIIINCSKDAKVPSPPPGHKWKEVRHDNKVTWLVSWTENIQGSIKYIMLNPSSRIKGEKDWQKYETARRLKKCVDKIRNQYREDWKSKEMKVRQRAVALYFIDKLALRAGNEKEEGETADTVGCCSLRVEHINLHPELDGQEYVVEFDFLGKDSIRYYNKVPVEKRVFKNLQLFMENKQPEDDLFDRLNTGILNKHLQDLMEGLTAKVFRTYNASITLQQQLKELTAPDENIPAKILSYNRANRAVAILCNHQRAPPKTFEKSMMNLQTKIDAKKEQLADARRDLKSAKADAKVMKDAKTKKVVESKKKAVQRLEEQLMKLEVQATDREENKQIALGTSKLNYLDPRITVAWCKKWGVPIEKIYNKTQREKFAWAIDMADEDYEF
Briefly: Immunocomplex of enzyme to DNA. Conditions: HCT116 cells; for Induction of cellular TOP1cc: 1 h, CPT 25 and 50 μM, 12 at 25, 50 and 100 μM.

The test system of the next data set is HCT116 cells. The note with it: 0.5, 1 and 2 μM, 24 h.
Another data set relates to A549 cells. Kind of data set: cells. Conditions: Homo sapiens, A549, 72 h, read-out: GI50 ± SD.

Structures are written as SMILES.

Usually GI50 stands for the concentration giving 50% growth inhibition.

Turning to `CNCCn1c(=O)c2cc(OC)c(OC)cc2c2ccc3cc4c(cc3c21)OCO4` [Compound 12, 2,3-Dimethoxy-12-(2-(methylamino)ethyl)-[1,3]dioxolo[4’,5’:4,5]benzo[1,2-c]phenanthridin-13(12H)-one], the mice survival entry is given as “all mice survived” in the data set on Kunming male mice (122.9 mg/kg single ip dose, 7 days); “four mice survived” in the data set with Kunming male mice (153.6 mg/kg single ip dose, 7 days); “three mice survived” with Kunming male mice (192 mg/kg single ip dose, 7 days); “two mice survived” in the data set on Kunming male mice (240 mg/kg single ip dose, 7 days); “All mice died within 5 days” with Kunming male mice (300 mg/kg single ip dose). For the same compound, the “Induction of γH2AX foci (DNA damage)” value in the data set on γH2AX foci is on record as “effectively induces γH2AX foci”. Further, the tumor volume entry in data set [1] and in data set [2] was “significantly reduced the tumor volume in a dose-dependent manner” throughout. Also, the “Induction of cellular TOP1cc compared with CPT” value in data set [3] (25 μM) was “higher ability to induce cellular TOP1cc at 25 μM than CPT”. In data set [3], the “Induction of cellular TOP1cc” value was “induce the formation of cellular TOP1cc in a dose-dependent manner”. In the data set with HCT116 cells, the Induction of apoptosis result is “induce HCT116 cells apoptosis in a dose-dependent manner”.
In the case of `CC[C@@]1(O)C(=O)OCc2c1cc1n(c2=O)Cc2cc3ccccc3nc2-1` [CPT, camptothecin, reference compound], in data set [3], the “Induction of cellular TOP1cc” value was “induce the formation of cellular TOP1cc in a dose-dependent manner”. Besides, the GI50 in the data set on A549 cells is 99 ± 17 nM.
